Experimental data reported in the Kinase Knowledgebase extract (Sharma et al. 2016).

target: PIK3CD (Human) (UniProt O00329); experiment: Enzyme Assay
Sequence (O00329 whole entry, looked up): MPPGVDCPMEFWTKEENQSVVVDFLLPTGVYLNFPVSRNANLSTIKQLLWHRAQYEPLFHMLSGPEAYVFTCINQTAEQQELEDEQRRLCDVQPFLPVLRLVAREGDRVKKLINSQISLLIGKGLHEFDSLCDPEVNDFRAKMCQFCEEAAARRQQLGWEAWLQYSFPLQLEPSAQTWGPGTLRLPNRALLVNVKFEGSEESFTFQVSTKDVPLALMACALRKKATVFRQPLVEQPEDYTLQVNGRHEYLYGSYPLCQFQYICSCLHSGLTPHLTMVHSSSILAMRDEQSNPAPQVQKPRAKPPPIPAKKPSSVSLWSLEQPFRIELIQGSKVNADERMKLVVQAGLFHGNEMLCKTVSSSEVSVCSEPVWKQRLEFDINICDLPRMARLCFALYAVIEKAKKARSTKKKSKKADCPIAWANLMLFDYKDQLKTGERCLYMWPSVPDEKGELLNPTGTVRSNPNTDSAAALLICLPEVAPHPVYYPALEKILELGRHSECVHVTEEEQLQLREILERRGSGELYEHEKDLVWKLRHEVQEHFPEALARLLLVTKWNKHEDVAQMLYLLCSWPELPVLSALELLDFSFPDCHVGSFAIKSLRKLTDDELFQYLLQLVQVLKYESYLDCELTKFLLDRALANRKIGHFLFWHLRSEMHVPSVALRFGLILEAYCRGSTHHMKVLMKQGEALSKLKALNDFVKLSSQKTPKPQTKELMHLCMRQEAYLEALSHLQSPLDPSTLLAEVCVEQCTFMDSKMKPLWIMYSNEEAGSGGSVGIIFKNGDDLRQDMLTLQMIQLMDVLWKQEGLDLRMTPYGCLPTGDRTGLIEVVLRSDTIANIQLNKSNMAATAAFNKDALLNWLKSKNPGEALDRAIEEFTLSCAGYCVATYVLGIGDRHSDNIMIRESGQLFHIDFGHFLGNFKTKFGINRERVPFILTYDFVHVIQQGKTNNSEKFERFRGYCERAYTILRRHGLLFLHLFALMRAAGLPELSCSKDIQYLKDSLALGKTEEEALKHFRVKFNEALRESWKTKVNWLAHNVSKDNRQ

SMILES | IC50
CCn1ncc(-c2nc3c(O[C@H]4CCN(C(=O)c5[nH]ncc5C)C4)ncnc3n2C)c1C | 3.6 nM
CCC(=O)N1CC[C@H](Oc2ncnc3c2nc(-c2cnn4c2CCC4)n3C)C1 | 23 nM
CCn1ncc(-c2nc3c(O[C@H]4CCN(C(=O)Nc5cccc(C)c5)C4)ncnc3n2C)c1C | 650 nM
CCn1ncc(-c2nc3c(O[C@H]4CCN(C(=O)c5cocn5)C4)ncnc3n2C)c1C | 19 nM
CCn1ncc(-c2nc3c(O[C@H]4CCN(C(=O)C(C)(C)C)C4)ncnc3n2C)c1C | 22 nM
CCNC(=O)N1CC[C@H](Oc2ncnc3c2nc(-c2cnn(CC)c2C)n3C)C1 | 10 nM
CCn1c(-c2cnc(C)nc2)nc2c(OC3CCN(C(=O)N(C)c4ccccc4)CC3)ncnc21 | 46 nM
CCn1ncc(-c2nc3c(O[C@H]4CCN(C(=O)c5cc(C(C)C)n[nH]5)C4)ncnc3n2C)c1C | 109 nM
CCn1ncc(-c2nc3c(S(=O)(=O)[C@H]4CCN(C(=O)OC(C)(C)C)C4)ncnc3n2C)c1C | 160 nM
CCn1ncc(-c2nc3c(O[C@H]4CCN(C(=O)c5cn6cccnc6n5)C4)ncnc3n2C)c1C | 100 nM
CCn1ncc(-c2nc3c(O[C@H]4CCN(C(=O)c5cccc6ccccc56)C4)ncnc3n2C)c1C | 67 nM
CCn1c(-c2cnc(C)nc2)nc2c(O[C@@H]3CN(C(=O)OC(C)(C)C)C[C@H]3O)ncnc21.CCn1c(-c2cnc(C)nc2)nc2c(O[C@H]3CN(C(=O)OC(C)(C)C)C[C@@H]3O)ncnc21 | 3.7 nM
CCn1c(-c2cnc(C)nc2)nc2c(O[C@H]3CCN(S(=O)(=O)CC)C3)ncnc21 | 170 nM
CCn1c(-c2cnc(C)nc2)nc2c(O[C@H]3CCN(C(=O)N4CC5CC5C4)C3)ncnc21 (some centres undefined) | 5.7 nM
CCn1ncc(-c2nc3c(O[C@H]4CCN(S(=O)(=O)CC)C4)ncnc3n2C)c1C | 200 nM
CCn1c(-c2cnc(C)nc2)nc2c(O[C@@H]3CN(C(=O)C4CC4)C[C@H]3OC)ncnc21 | 41 nM
CCn1ncc(-c2nc3c(O[C@H]4CCN(Cc5ccc(N(C)C)cc5)C4)ncnc3n2C)c1C | 3100 nM

SMILES | IC50
Cn1c(-c2cnn3cccnc23)nc2c(O[C@H]3CCN(C(=O)OC(C)(C)C)C3)ncnc21 | 210 nM
CCn1ncc(-c2nc3c(O[C@H]4CCN(c5ncnc6sc(C)c(C)c56)C4)ncnc3n2C)c1C | 19 nM
CCn1ncc(-c2nc3c(O[C@H]4CCN(C(=O)C5CC(=O)N(C)C5)C4)ncnc3n2C)c1C (some centres undefined) | 30 nM
CCn1ncc(-c2nc3c(CC4CCN(C(=O)OC(C)(C)C)C4)ncnc3n2C)c1C (centres undefined) | 560 nM
CCn1c(-c2ccc(C(F)(F)F)nc2)nc2c(O[C@H]3CCN(C(=O)C4CC4)C3)ncnc21 | 3 nM
CCn1ncc(-c2nc3c(O[C@H]4CCN(C(=O)c5cc6ncccc6[nH]5)C4)ncnc3n2C)c1C | 1900 nM
CCn1c(-c2cnc(C)nc2)nc2c(O[C@H]3CCN(C(=O)N4CCCCC4)C3)ncnc21 | 21 nM
CCC(=O)N1CC[C@H](Oc2ncnc3c2nc(-c2ccc(OC)c(C)c2)n3C)C1 | 4.6 nM
CCn1c(-c2cnc(C)nc2)nc2c(O[C@H]3CCN(c4cncnc4)C3)ncnc21 | 47 nM
CCn1ncc(C(=O)N2CC[C@H](Oc3ncnc4c3nc(-c3cnn(CC)c3C)n4C)C2)c1C | 29 nM
CCn1c(-c2ccc(OC)cn2)nc2c(O[C@H]3CCN(C(=O)C4CC4)C3)ncnc21 | 240 nM
CCn1c(-c2cnc(C)nc2)nc2c(O[C@H]3CCN(C(=O)N4C5CCC4CC5)C3)ncnc21 | 10 nM
CCn1c(-c2cnc(C)nc2)nc2c(O[C@H]3CCN(c4ccccn4)C3)ncnc21 | 1.7 nM
CCn1ncc(-c2nc3c(OC4CCN(C(=O)c5cnco5)C4)ncnc3n2C)c1C (centres undefined) | 17 nM
CCC(=O)N1CC[C@H](Oc2ncnc3c2nc(-c2ccc4cn[nH]c4c2)n3C)C1 | 7.2 nM
CCn1c(-c2cnc(OC)c(F)c2)nc2c(O[C@H]3CCN(C(=O)C4CC(F)(F)C4)C3)ncnc21 | < 1 nM
CCn1ncc(-c2nc3c(O[C@H]4CCN(C(=O)c5cnon5)C4)ncnc3n2C)c1C | 41 nM
